Key:
[1] = tested on: streptozotocin-diabetic mice; assay: Glucose tolerance test (GTT) of diabetic mice; assay type: in vivo, mouse
Experimental: FIG. 14: Glucose tolerance test (GTT) of diabetic mice treated with sesame oil or EH-36 for 9 days, as described in the legend to FIG. 12. On the morning of the 10th day and following an overnight fast the mice received glucose (2 gr/Kg body weight) by i.p. injection, Blood glucose was determined for 3 hr at 30 min intervals. The glucose data were plotted for each animal and the area under the curve (AUC) was calculated.
In another set of experiments similar diabetic mice were treated with the oil or EH-36 (1.5 mg, s.c. twice a day) for 9 days. On the morning of the 10th day and following an overnight fast the mice were subjected to a glucose tolerance test (GTT). The mice received D-glucose by i.p. injections (2 gr/kg body weight). Blood glucose as monitored for 3 hr at 30 min intervals.

[2] = tested on: glucose uptake in cultured cells; assay: In vitro glucose uptake / hexose transport in cultured cells with xylose derivatives (Table 2); assay type: cell-based; details: for EC50 / ECmax: EC = Effective concentration
Experimental: Table 2 summarizes in vitro results obtained with some of these newly synthesized xylose derivatives.
(§1) Uptake assay of the tritiated glucose analogue, 2-deoxy-D-glucose, is routinely performed as described in [Sasson, S. and Cerasi, E. (1986) J. Biol. Chem. 261, 16827-16833].
All new compounds are screened and tested first in various insulin-sensitive cell cultures used routinely in the laboratory (skeletal muscle and adipose cell lines). In addition these drugs were tested in non-insulin-sensitive cells such as primary cultures of bovine and porcine vascular endothelial and smooth muscle cells. Active compounds were tested ex-vivo on isolated rat soleus muscles. All cell cultures and tissues were maintained under hyperglycemic condition prior to the addition of the test compounds. Dose-response and time-course experiments determine which of the derivatives are subsequently tested in animal models. For each potent compound the total cell content and plasma membrane abundance of GLUT-1 and GLUT-4 was determined, as described above. The same biotinylation technique was employed to determine the total and plasma membrane content of both transporters in isolated mouse or rat soleus muscles treated with potent compounds.

non-diabetic mice = assay: Blood glucose level of non-diabetic mice; details: mouse, in vivo
[3] = Serum level of EH-36 in rats by HPLC; assay type: in vivo, rat; details: 16 mg/day in sesame oil s.c. for 3 days, serum on fourth day, preliminary
Experimental: Extract aliquots (30 μl) were analyzed by reverse phase HPLC in a 150×4.6 mm, 3μ ODS Hypersil® column (Thermohypersil-Keystone, Bellfonte, Pa.) connected to an L-4200 UV-Vis detector (272 nm). Elution was at a flow rate of 1.5 ml/min with water and acetonitrile gradient: the initial solvent mixture was 30% water:70% acetonitrile:. A convex gradient over 20 min then followed to 100% acetonitrile.
The pharmacokinetic parameters of EH-36 were determined by the following procedure. Rats (3 per group per time point) were anesthetized and their blood collected from the portal vein. The serum was separated and extracted with chloroform. The extract was dried and redissolved in a small volume of chloroform and separated by HPLC and identified by UV absorption. The animals were treated with 16 mg/day (in sesame oil, s.c.) for 3 days. On the fourth day the animals were sacrificed and serum was isolated, extracted and separated by HPLC. There was a distinct peak of EH-36 corresponding to 1.01 mg/ml EH-36. To verify that this peak corresponds to EH-36 a known quantity of this compound was added to a serum sample taken from the EH-36-treated rats. Following extraction and HPLC analysis the only peak that was intensified was that corresponding to EH-36. […]

Solubility of EH-36 = assay type: physicochemical; details: e.g., DMSO, ethanol and oil
[4] = tested on: streptozotocin-diabetic C57/black mice; assay: Anti-hyperglycemic activity in streptozotocin-diabetic mice; assay type: in vivo, mouse
Experimental: FIG. 12: Anti-hyperglycemic activity of EH-36 in streptozotocin-diabetic mice. Mice were treated with EH-36 or the vehicle alone (sesame oil, bold lines), and their blood glucose levels determined at the indicated time intervals. Male C57/black mice were made hyperglycemic by 5 repeated daily injections of streptozotocin (i.p. 50 mg/Kg body weight). EH-36 was dissolved in sesame oil (4 mg/ml) and injected s.c (400 μg) twice a day.
FIG. 13: Anti-hyperglycemic activity of EH-36 in streptozotocin-diabetic mice. Mice were treated with EH-36 (as described in the legend to FIG. 12) or the vehicle alone (sesame oil, bold lines), and their blood glucose levels were determined at the indicated time intervals. C57/black mice were made diabetic as described in the legend to FIG. 12.
EH-36 was tested for its potential anti-hyperglycemic activity in an animal model of diabetes. Male C57/black mice were made diabetic by daily i.p. injections of streptozotocin (50 mg/Kg) for 5 days. After 10 days the fasting blood glucose of these mice was above 300 mg/dL as compared to 80-130 mg/dL of control mice. Unlike a single and high dose injection of streptozotocin, which produces an animal model for Type 1 diabetes, the repeated low-dose injections produce a model that more closely resembles Type 2 diabetes. (Fraser, R. B., Rowden, G., Colp, P, And Wright, J. R. Jr.: Immunophenotyping of insulitis in control and essential fatty aid deficient mice treated with multiple low-dose streptozotocin. Diabetologia, 40:1263-1268, 1997).
EH-36 was dissolved in sesame oil (4 mg/ml) and injected into Streptozotocin-diabetic mice (s.c. 400 μg, twice a day at 08 and 18 hrs). Blood was withdrawn from the tip of the tails and glucose levels were measured with a glucometer.

GLUT-4 = assay: Cell surface biotinylation and western blot of GLUT-4 in L6 myotubes; assay type: cell-based, rat; details: for translocation of GLUT-4 to the plasma membrane: L6 myotubes, xylose derivatives in the absence of insulin, insulin 500 nM (FIG. 10)
Experimental: (§2) FIG. 10: Western blot depicting effect of 3-O-propyl-D-xylose (EH-114), and 1,3-O-dimethylxylopyranoside (EH-101) on the total cell content and plasma membrane abundance of GLUT-4 in the absence or presence of insulin. L6 myotubes were maintained for 48 hr at 23 mM Glucose. The cells were than washed and received fresh medium containing the indicated additions and incubated for additional […]. Insulin was added during the last 30 min of incubation before the dGlc uptake assay.
(§3) GLUT-1 and GLUT-4 mediate glucose entry into L6 myotubes. It is established that GLUT-4 is translocated effectively and rapidly to the plasma membrane upon insulin treatment. The inventors looked at the effect of 3-O-propyl-D-xylose EH-114) and 1,3-O-dimethylxylopyranoside (EH-101) on the total cell content and plasma membrane abundance of these transporters in the absence or presence of insulin. L6 myotubes were maintained at 5.0 or 23.0 mM glucose for 48 hr and EH-114 and EH-101 were present during the last 24 hr. The cells were then taken for the standard [^3H]-2-deoxy-D-glucose uptake assay and for the biotinylation procedure for determining the amount of GLUT-1 and GLUT-4 in the plasma membrane. High glucose levels decreased the hexose transport rate by ˜50%. Insulin augmented the transport nearly 2-fold in both cases. EH-114 and EH-101 increased the transport rate 2-3-fold in the absence of insulin. Together with insulin the uptake rate was increased nearly 3-fold.
Surface biotinylation of the cells was performed as previously described [Sasson et al (1997), Diabetologia, 40, 30-398].

L6 myotubes = assay: dGlc uptake assay in L6 myotubes; assay type: cell-based, rat; details: for effect of PI3-kinase inhibitor LY-249002 on the substance's stimulation of hexose transport: 60 μM inhibitor, 23.0 mM glucose (FIG. 11A), EH-40 data not shown
Experimental: as §2
FIG. 11A: Effect of LY-249002, a PI3-kinase inhibitor, on insulin, D-xylose, EH-101 and EH-114-mediated glucose uptake. L6 myotubes were treated as described in the legend to FIG. 10. The glucose concentration in the culture medium was 23.0 mM. The concentration of LY-294002 was 60 μM. At the end of incubation the cells were taken for the standard dGlc uptake assay. Mean±SEM, n=3.
as §3
The inventors also tested the hypothesis that the active D-xylose derivatives augment the hexose transport capacity in L6 myotubes by translocating GLUT-4 to the plasma membrane not via the common insulin-regulated pathway. For this experiment, a selective inhibitor of the enzyme PI3-kinase, LY-249002, which is a key enzyme in the cellular transduction mechanism of insulin, was utilized. […] These findings also agree well with the longer onset of action of these derivatives as compared to the rapid action of insulin. Similar results were obtained when LY-249002 was present together with the derivatives throughout the entire incubation period.
as §1

PKB = PKB phosphorylation immunoblot in L6 myotubes; assay type: cell-based, rat; details: 23.0 mM glucose; 100 nM insulin, 20 mM xylose, 5 mM EH-114 or 250 μM EH-40, up to 24 hrs (FIG. 11B)
Experimental: FIG. 11B: Effects of insulin D-xylose and xylose derivatives on PKB phosphorylation. L6 myotubes were maintained at 5.5 mM or 23.0 mM glucose. The latter were treated with 100 nM insulin, 20 mM xylose, 5 mM EH-114 or 250 μM EH-40 up to 24 hrs. At the indicated times treated myotubes were collected, homogenized and lysed and the soluble protein fraction was isolated. The control myotubes were collected at the end of the 24 hr incubation period. Equal amounts of proteins of the various treated myotubes were separated on SDS-PAGE and immunoblotted with a specific antibody against phospho-Axt1/PKBα (Ser473). In order to test whether xylose derivative activate insulin transduction elements downstream of PI3K, the inventors tested the state of PKB phosphorylation, as shown in FIG. 11B.

GLUT-1 = assay: Cell surface biotinylation and western blot of GLUT-1 in L6 myotubes; assay type: cell-based, rat; details: data not shown
Experimental: as §3
FIG. 10 presents the western blots showing the results of such a representative experiment. Under hyperglycemic conditions the total cell content of GLUT-4 was reduced as well as its plasma membrane abundance [lanes 1 & 2 for Total cell content and PM (plasma membrane) fractions]. […]

CCSC(SCC)[C@@H]1OC(c2ccccc2)O[C@@H]2COC(c3ccccc3)O[C@@H]21 (stereo partly drawn) [EH-36, 2,4:3,5 di-O-benzylidene-D-xylose-diethyl-dithioacetal]
average AUC of GTT ([1]; 1.5 mg s.c. twice a day for 9 days, glucose 2 gr/kg i.p. on 10th day, ±SEM): 6.42±1.62 mg glucose/ml/hr
improvement of glucose clearance ([1]; following a 9-day treatment): ~50%
Fold Increase of Glucose Uptake [2]: 2.0 fold
onset of action [2]: 24 to 48 h
time to maximal stimulatory effects [2]: ≤ 48 h
EC50 [2]: 2 µM
ECmax [2]: 10 µM
potency relative to D-xylose ([2]; more potent than xylose): 2000 fold
blood glucose level of non-diabetic mice (non-diabetic mice): Neither EH-36 nor the vehicle changed significantly
serum concentration [3]: 1010 µg/mL
solubility (Solubility of EH-36): very limited solubility in most common organic solvents
blood glucose level ([4]; 400 μg s.c. in sesame oil twice a day (FIG. 13)): reduced their blood glucose level to the normoglycemic range
duration of effect after treatment ([4]; after the last injection): at least 3 weeks
blood glucose levels after treatment stopped ([4]; left untreated for four additional weeks after 9-day injection): 250 to 350 mg/dL
appearance of animals after treatment stopped ([4]; untreated for four additional weeks): looked normal and healthy

CCCO[C@@H]([C@H](O)CO)[C@@H](O)C=O [EH-114, 3-O-propyl-D-xylose]
total cell content of GLUT-4 (GLUT-4; L6 cells exposed to 23.0 mM glucose (FIG. 10)): increased the total content of the transporter
translocation of GLUT-4 to the plasma membrane (GLUT-4): induced significant translocation of GLUT-4 to the plasma membrane
Fold Increase of Glucose Uptake [2]: 2.6 fold
EC50 [2]: 3000 µM
ECmax [2]: 4500 µM
duration of activity following removal from the culture media ([2]; after being washed from cell cultures): 24 h
effect of PI3-kinase inhibitor LY-249002 on the substance's stimulation of hexose transport (L6 myotubes): failed to affect
increase of uptake rate together with insulin (L6 myotubes; L6 myotubes, compound during last 24 hr plus insulin): ~3 fold
PKB phosphorylation (PKB): failed to induce significant phosphorylation

Insulin: insulin, hormone used as positive control for glucose transport stimulation [reference compound]
translocation of GLUT-4 to the plasma membrane (GLUT-4): translocation of GLUT-4 to the plasma membrane
effect of PI3-kinase inhibitor LY-249002 on the substance's stimulation of hexose transport (L6 myotubes): eliminated the stimulatory effect
augmentation of transport by insulin (L6 myotubes; at 5.0 and 23.0 mM glucose): ~2 fold
PKB phosphorylation (PKB): prominent, but transient phosphorylation
effect on GLUT-1 (blots with anti GLUT-1 antibody) (GLUT-1): no effect
